Experimental data taken from publication PMC6642134, “Dopey1-Mon2 complex binds to dual-lipids and recruits kinesin-1 for membrane trafficking” (Nature Communications, 2019).
Blank lines part the entries; values can stand above or below the molecule they belong to.

Legend:
[1] = target: T1, GST-DEC (Dopey1 extreme C-terminal region) (Homo sapiens, UniProt B2RWN9); assay: liposome pull-down with diluted protein, Western blot; format: binding; conditions: read-out: apparent affinity
T1 construct: DEC domain, residues 2146-2456, N-terminal GST fusion kept, E. coli BL21 DE3, detergent-free; dimeric through GST
T1 sequence (B2RWN9 2146-2456): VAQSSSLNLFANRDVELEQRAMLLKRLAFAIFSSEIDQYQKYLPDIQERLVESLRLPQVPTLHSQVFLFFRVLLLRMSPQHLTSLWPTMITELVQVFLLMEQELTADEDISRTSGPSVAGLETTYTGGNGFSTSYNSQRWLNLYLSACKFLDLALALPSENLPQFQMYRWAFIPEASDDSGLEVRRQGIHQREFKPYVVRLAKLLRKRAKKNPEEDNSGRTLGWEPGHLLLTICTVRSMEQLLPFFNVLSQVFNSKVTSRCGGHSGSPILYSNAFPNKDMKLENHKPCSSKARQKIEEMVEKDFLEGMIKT

[2] = target: the molecule itself; assay: single-molecule photo-bleaching steps (TIRF microscopy); GFP-fusion protein in HEK293T lysate (20 mM Tris pH 7.4) immobilised on a glass coverslip; photo-bleaching steps counted; expressed alone

Kd [1]: ~1000 nM
Molecule: PI4P

B1: Mon2, full length, transfected (natural protein, UniProt Q7Z3U7 1-1717, looked up)
chain: MSGTSSPEAVKKLLENMQSDLRALSLECKKKFPPVKEAAESGIIKVKTIAARNTEILAALKENSSEVVQPFLMGCGTKEPKITQLCLAAIQRLMSHEVVSETAAGNIINMLWQLMENSLEELKLLQTVLVLLTTNTVVHDEALSKAIVLCFRLHFTKDNITNNTAAATVRQVVTVVFERMVAEDERHRDIIEQPVLVQGNSNRRSVSTLKPCAKDAYMLFQDLCQLVNADAPYWLVGMTEMTRTFGLELLESVLNDFPQVFLQHQEFSFLLKERVCPLVIKLFSPNIKFRQGSSTSSSPAPVEKPYFPICMRLLRVVSVLIKQFYSLLVTECEIFLSLLVKFLDADKPQWLRAVAVESIHRFCVQPQLLRSFCQSYDMKQHSTKVFRDIVNALGSFIQSLFLVPPTGNPATSNQAGNNNLGGSVSAPANSGMVGIGGGVTLLPAFEYRGTWIPILTITVQGSAKATYLEMLDKVEPPTIPEGYAMSVAFHCLLDLVRGITSMIEGELGELETECQTTTEEGSSPTQSTEQQDLQSTSDQMDKEIVSRAVWEEMVNACWCGLLAALSLLLDASTDEAATENILKAELTMAALCGRLGLVTSRDAFITAICKGSLPPHYALTVLNTTTAATLSNKSYSVQGQSVMMISPSSESHQQVVAVGQPLAVQPQGTVMLTSKNIQCMRTLLNLAHCHGAVLGTSWQLVLATLQHLVWILGLKPSSGGALKPGRAVEGPSTVLTTAVMTDLPVISNILSRLFESSQYLDDVSLHHLINALCSLSLEAMDMAYGNNKEPSLFAVAKLLETGLVNMHRIEILWRPLTGHLLEVCQHPNSRMREWGAEALTSLIKAGLTFNHDPPLSQNQRLQLLLLNPLKEMSNINHPDIRLKQLECVLQILQSQGDSLGPGWPLVLGVMGAIRNDQGESLIRTAFQCLQLVVTDFLPTMPCTCLQIVVDVAGSFGLHNQELNISLTSIGLLWNISDYFFQRGETIEKELNKEEAAQQKQAEEKGVVLNRPFHPAPPFDCLWLCLYAKLGELCVDPRPAVRKSAGQTLFSTIGAHGTLLQHSTWHTVIWKVLFHLLDRVRESSTTADKEKIESGGGNILIHHSRDTAEKQWAETWVLTLAGVARIFNTRRYLLQPLGDFSRAWDVLLDHIQSAALSKNNEVSLAALKSFQEILQIVSPVRDSDKPETPPVVNVPVPVLIGPISGMSRPFVRTDSIGEKLGRYSSSEPPIVTDELEDLNLWWAAWNTWYRIGSESTKPPITFDKLTFIPSQPFLTALIQIFPALYQHIKTGFNMDDLQKLGVILHSAISVPISSDASPFILPSYTEAVLTSLQEAVLTALDVLQKAICVGPENMQIMYPAIFDQLLAFVEFSCKPPQYGQLETKHIANAKYNQIQLFAPAEWVALNYVPFAERSLEVVVDLYQKTACHKAVVNEKVLQNIIKTLRVPLSLKYSCPSESTWKLAVSSLLRVLSIGLPVARQHASSGKFDSMWPELANTFEDFLFTKSIPPDNLSIQEFQRNENIDVEVVQLISNEILPYANFIPKEFVGQIMTMLNKGSIHSQSSSFTEAEIDIRLREEFSKMCFETLLQFSFSNKVTTPQEGYISRMALSVLLKRSQDVLHRYIEDERLSGKCPLPRQQVTEIIFVLKAVSTLIDSLKKTQPENVDGNTWAQVIALYPTLVECITCSSSEVCSALKEALVPFKDFMQPPASRVQNGES
notes: Mon2, full length; One molecule for the differently tagged copies (GFP-Mon2 and DMyc-Mon2 in the self co-IP); GFP-Mon2 in photo-bleaching; DMyc-Mon2 co-expressed with GFP-Dopey1; also called GFP-Mon2; DMyc-Mon2; source: HEK293T, transfected, in lysate; HeLa, transfected (imaging); not shown: GFP or DMyc or another fluorescence protein (by experiment), N-terminal, kept
stoichiometry N [2]: 2
